Consider two compounds from ChEMBL document CHEMBL3351663, “Discovery of acylurea isosteres of 2-acylaminothiadiazole in the azaxanthene series of glucocorticoid receptor agonists” (Bioorg Med Chem Lett, 2014).

Where only a bound is given, the exact number is not on record here.

As a reminder, the Ki is a dissociation constant, usually derived from enzyme kinetics or from competition with a known ligand. A low value points to higher affinity. A word on the EC50: it is the concentration needed to bring the measured effect to its halfway point. One may read the IC50 as the midpoint of a concentration-inhibition curve.

For one data set, the target named is T1, Androgen receptor (Homo sapiens, UniProt P10275).
T1 sequence (P10275 whole entry): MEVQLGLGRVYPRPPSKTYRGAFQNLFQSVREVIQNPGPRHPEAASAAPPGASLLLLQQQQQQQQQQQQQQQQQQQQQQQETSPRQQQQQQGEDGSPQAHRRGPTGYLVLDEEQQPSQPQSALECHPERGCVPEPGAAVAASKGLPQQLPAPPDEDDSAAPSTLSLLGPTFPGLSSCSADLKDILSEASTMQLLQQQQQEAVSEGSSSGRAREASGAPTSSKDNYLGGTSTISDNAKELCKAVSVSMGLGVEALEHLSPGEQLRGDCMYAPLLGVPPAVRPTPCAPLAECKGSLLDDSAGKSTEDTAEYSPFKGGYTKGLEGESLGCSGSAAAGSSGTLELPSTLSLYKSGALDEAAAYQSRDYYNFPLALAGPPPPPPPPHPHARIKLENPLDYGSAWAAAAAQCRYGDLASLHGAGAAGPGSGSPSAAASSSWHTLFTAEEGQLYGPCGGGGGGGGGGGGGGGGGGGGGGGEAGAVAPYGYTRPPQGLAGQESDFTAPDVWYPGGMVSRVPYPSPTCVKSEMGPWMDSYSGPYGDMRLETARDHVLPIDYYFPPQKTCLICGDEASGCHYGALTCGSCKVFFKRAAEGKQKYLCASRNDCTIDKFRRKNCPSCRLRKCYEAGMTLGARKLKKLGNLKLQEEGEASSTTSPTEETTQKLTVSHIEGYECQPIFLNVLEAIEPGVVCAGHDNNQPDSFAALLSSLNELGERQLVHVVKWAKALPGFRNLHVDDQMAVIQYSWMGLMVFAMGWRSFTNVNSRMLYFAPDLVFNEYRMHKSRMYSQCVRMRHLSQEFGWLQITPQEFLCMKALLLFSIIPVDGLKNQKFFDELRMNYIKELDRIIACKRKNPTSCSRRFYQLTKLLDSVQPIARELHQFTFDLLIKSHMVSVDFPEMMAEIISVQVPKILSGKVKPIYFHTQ
Nature of the data set: Binding affinity to androgen receptor (unknown origin).

Data set [1] has as its target T2, Mineralocorticoid receptor (Homo sapiens, UniProt P08235).
T2 sequence (P08235 whole entry): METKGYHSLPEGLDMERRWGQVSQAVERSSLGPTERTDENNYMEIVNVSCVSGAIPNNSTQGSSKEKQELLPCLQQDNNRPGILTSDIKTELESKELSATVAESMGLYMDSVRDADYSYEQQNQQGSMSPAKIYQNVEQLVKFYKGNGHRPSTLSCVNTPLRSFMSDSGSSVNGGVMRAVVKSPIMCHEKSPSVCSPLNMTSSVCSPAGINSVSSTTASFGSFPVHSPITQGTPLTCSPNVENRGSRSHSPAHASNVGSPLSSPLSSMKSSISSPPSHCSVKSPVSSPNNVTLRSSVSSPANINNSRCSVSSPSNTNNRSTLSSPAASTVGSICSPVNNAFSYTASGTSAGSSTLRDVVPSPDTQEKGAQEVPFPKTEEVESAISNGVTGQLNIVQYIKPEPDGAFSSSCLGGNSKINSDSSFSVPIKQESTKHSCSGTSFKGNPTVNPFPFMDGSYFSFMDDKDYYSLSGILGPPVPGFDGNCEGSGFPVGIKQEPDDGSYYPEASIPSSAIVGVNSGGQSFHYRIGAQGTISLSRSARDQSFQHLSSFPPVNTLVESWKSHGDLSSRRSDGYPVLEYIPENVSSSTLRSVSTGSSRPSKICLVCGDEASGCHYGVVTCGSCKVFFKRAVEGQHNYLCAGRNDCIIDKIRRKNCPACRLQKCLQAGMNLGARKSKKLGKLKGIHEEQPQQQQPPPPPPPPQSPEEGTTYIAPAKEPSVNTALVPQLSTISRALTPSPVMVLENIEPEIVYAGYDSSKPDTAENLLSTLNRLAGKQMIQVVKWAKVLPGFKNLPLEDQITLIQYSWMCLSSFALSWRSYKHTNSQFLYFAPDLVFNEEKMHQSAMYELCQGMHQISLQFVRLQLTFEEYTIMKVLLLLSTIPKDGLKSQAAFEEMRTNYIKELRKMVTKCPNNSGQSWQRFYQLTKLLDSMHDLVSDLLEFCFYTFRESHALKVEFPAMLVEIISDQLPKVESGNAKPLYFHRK
As to the kind of experiment: Agonist activity at mineralocorticoid receptor in human A549 cells. The data set is classed as cell-based.

The next data set deals with T3, Cytochrome P450 2C8 (Homo sapiens, UniProt P10632).
T3 sequence (P10632 whole entry): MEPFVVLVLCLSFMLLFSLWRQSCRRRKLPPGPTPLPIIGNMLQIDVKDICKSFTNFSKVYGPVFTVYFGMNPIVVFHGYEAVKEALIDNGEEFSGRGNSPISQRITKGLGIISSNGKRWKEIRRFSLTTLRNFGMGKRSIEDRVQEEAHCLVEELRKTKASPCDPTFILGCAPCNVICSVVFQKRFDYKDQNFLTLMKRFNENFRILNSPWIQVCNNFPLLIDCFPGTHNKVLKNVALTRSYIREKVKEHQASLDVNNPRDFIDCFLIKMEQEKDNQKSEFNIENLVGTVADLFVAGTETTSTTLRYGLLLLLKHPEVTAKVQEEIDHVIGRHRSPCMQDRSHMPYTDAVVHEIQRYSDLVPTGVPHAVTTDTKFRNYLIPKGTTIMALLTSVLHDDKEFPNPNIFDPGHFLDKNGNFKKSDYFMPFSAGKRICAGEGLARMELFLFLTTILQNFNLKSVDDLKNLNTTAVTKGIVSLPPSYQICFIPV
As to the kind of experiment: Inhibition of CYP2C8 (unknown origin). Type of data set: ADME.

A further data set deals with Liver microsome. Nature of the data set: Metabolic stability in rat liver microsomes assessed as compound remaining. A general note: Liver microsomes are vesicles of endoplasmic reticulum, rich in cytochrome P450 enzymes.

For `CC(C)(C(=O)Nc1nncs1)[C@@H]1c2ccc(-c3ccc(C(=O)N4CCOCC4)cc3)nc2Oc2c(F)cccc21`, the Ki on Androgen receptor was more than 50 µM. The EC50 in data set [1] is more than 5 µM. The compound further displayed a concentration for half-maximal inhibition (IC50) against Cytochrome P450 2C8 of 3.7 µM.

`CC(C)(C(=O)NC(N)=O)[C@@H]1c2ccc(-c3ccc(C(=O)N4CCOCC4)cc3)nc2Oc2c(F)cccc21` returned a Ki on Androgen receptor of more than 50 µM. Besides, the EC50 in data set [1] is more than 5 µM. The compound also had a 50% inhibitory concentration (IC50) on Cytochrome P450 2C8 of 8.9 µM. Moreover, the Stability with Liver microsome stood at 90%.
